According to ChEMBL document CHEMBL1201862, “PubChem BioAssay data set” (2004):
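A five-concentration, 48-hour dose response in 96-well plates underlies each endpoint, interpolated linearly between surrounding concentrations. GI50: concentration for 50% inhibition of growth.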 Active and inactive are the calls of the source. No stated cut-off is given here; in the data, active = GI50 up to about 1.1 µM and inactive = higher.

How the values were obtained:
Experiment in all cases: DTP human tumour cell line panel, 48 h
RXF 393 = system: RXF 393
SW-620 = system: SW-620
SK-OV-3 = system: SK-OV-3
HL-60 = system: HL-60
OVCAR-4 = system: OVCAR-4
M14 = system: M14
XF498 = system: XF498
OVCAR-5 = system: OVCAR-5
Malme-3M = system: Malme-3M
NCI-H23 = system: NCI-H23
NCI-H460 = system: NCI-H460
SF-295 = system: SF-295
DMS-114 = system: DMS-114
SF-268 = system: SF-268
DLD-1 = system: DLD-1
KM12 = system: KM12
SN12C = system: SN12C
SK-MEL-5 = system: SK-MEL-5
UACC-257 = system: UACC-257
OVCAR-8 = system: OVCAR-8
SR = system: SR
LOX IMVI = system: LOX IMVI
K562 = system: K562
CCRF-CEM = system: CCRF-CEM
COLO 205 = system: COLO 205
M19-MEL = system: M19-MEL
HCC 2998 = system: HCC 2998
SK-MEL-28 = system: SK-MEL-28
KM-20L2 = system: KM-20L2
TK-10 = system: TK-10
SNB-78 = system: SNB-78
NCI-H522 = system: NCI-H522
UO-31 = system: UO-31
A549 = system: A549
786-0 = system: 786-0
LXFL 529 = system: LXFL 529
ACHN = system: ACHN
HOP-62 = system: HOP-62
RPMI-8226 = system: RPMI-8226
MOLT-4 = system: MOLT-4
CAKI-1 = system: CAKI-1
UACC-62 = system: UACC-62
OVCAR-3 = system: OVCAR-3
HOP-92 = system: HOP-92
HCT-15 = system: HCT-15
U-251 = system: U-251
NCI-H226 = system: NCI-H226
HCT-116 = system: HCT-116
DMS-273 = system: DMS-273
SF-539 = system: SF-539
SNB-75 = system: SNB-75
IGROV-1 = system: IGROV-1
RXF 631 = system: RXF 631
HT-29 = system: HT-29
A498 = system: A498
SNB-19 = system: SNB-19
EKVX = system: EKVX
SK-MEL-2 = system: SK-MEL-2

**Q.** How did the GI50 (RXF 393) turn out when `CCOC(=O)C(C[Si](C)(C)C)P(=O)(OCC)OCC` (stereo not drawn) was run?
**A.** > 100 µM (inactive)

**Q.** What about the GI50 (SW-620) of the same compound?
**A.** > 100 µM (inactive)

**Q.** What about the GI50 (SK-OV-3) of the same compound?
**A.** > 100 µM (inactive)

**Q.** And the GI50 (HL-60)?
**A.** > 100 µM (inactive)

**Q.** What about the GI50 (OVCAR-4) of the same compound?
**A.** > 100 µM (inactive)

**Q.** What about the GI50 (M14) of the same compound?
**A.** > 100 µM (inactive)

**Q.** What about the GI50 (XF498) of the same compound?
**A.** > 100 µM (inactive)

**Q.** What about the GI50 (OVCAR-5) of the same compound?
**A.** > 100 µM (inactive)

**Q.** And the GI50 (Malme-3M)?
**A.** > 100 µM (inactive)

**Q.** What about the GI50 (NCI-H23) of the same compound?
**A.** > 100 µM (inactive)

**Q.** And the GI50 (NCI-H460)?
**A.** > 100 µM (inactive)

**Q.** What about the GI50 (SF-295) of the same compound?
**A.** > 100 µM (inactive)

**Q.** What about the GI50 (DMS-114) of the same compound?
**A.** > 100 µM (inactive)

**Q.** What about the GI50 (SF-268) of the same compound?
**A.** > 100 µM (inactive)

**Q.** And the GI50 (DLD-1)?
**A.** > 100 µM (inactive)

**Q.** What about the GI50 (KM12) of the same compound?
**A.** > 100 µM (inactive)

**Q.** And the GI50 (SN12C)?
**A.** > 100 µM (inactive)

**Q.** And the GI50 (SK-MEL-5)?
**A.** > 100 µM (inactive)

**Q.** And the GI50 (UACC-257)?
**A.** > 100 µM (inactive)

**Q.** And the GI50 (OVCAR-8)?
**A.** > 100 µM (inactive)

**Q.** What about the GI50 (SR) of the same compound?
**A.** > 100 µM (inactive)

**Q.** And the GI50 (LOX IMVI)?
**A.** > 100 µM (inactive)

**Q.** And the GI50 (K562)?
**A.** > 100 µM (inactive)

**Q.** What about the GI50 (CCRF-CEM) of the same compound?
**A.** > 100 µM (inactive)

**Q.** And the GI50 (COLO 205)?
**A.** > 100 µM (inactive)

**Q.** And the GI50 (M19-MEL)?
**A.** > 100 µM (inactive)

**Q.** What about the GI50 (HCC 2998) of the same compound?
**A.** > 100 µM (inactive)

**Q.** And the GI50 (SK-MEL-28)?
**A.** > 100 µM (inactive)

**Q.** And the GI50 (KM-20L2)?
**A.** > 100 µM (inactive)

**Q.** And the GI50 (TK-10)?
**A.** > 100 µM (inactive)

**Q.** And the GI50 (SNB-78)?
**A.** > 100 µM (inactive)

**Q.** And the GI50 (NCI-H522)?
**A.** > 100 µM (inactive)

**Q.** What about the GI50 (UO-31) of the same compound?
**A.** > 100 µM (inactive)

**Q.** What about the GI50 (A549) of the same compound?
**A.** > 100 µM (inactive)

**Q.** What about the GI50 (786-0) of the same compound?
**A.** > 100 µM (inactive)

**Q.** What about the GI50 (LXFL 529) of the same compound?
**A.** > 100 µM (inactive)

**Q.** What about the GI50 (ACHN) of the same compound?
**A.** > 100 µM (inactive)

**Q.** And the GI50 (HOP-62)?
**A.** > 100 µM (inactive)

**Q.** And the GI50 (RPMI-8226)?
**A.** > 100 µM (inactive)

**Q.** What about the GI50 (MOLT-4) of the same compound?
**A.** > 100 µM (inactive)

**Q.** And the GI50 (CAKI-1)?
**A.** > 100 µM (inactive)

**Q.** And the GI50 (UACC-62)?
**A.** > 100 µM (inactive)

**Q.** And the GI50 (OVCAR-3)?
**A.** > 100 µM (inactive)

**Q.** What about the GI50 (HOP-92) of the same compound?
**A.** > 100 µM (inactive)

**Q.** What about the GI50 (HCT-15) of the same compound?
**A.** > 100 µM

**Q.** What about the GI50 (U-251) of the same compound?
**A.** > 100 µM (inactive)

**Q.** What about the GI50 (NCI-H226) of the same compound?
**A.** > 100 µM (inactive)

**Q.** What about the GI50 (HCT-116) of the same compound?
**A.** > 100 µM (inactive)

**Q.** What about the GI50 (DMS-273) of the same compound?
**A.** > 100 µM (inactive)

**Q.** And the GI50 (SF-539)?
**A.** > 100 µM (inactive)

**Q.** What about the GI50 (SNB-75) of the same compound?
**A.** 38.5 µM (inactive)

**Q.** And the GI50 (IGROV-1)?
**A.** > 100 µM (inactive)

**Q.** And the GI50 (RXF 631)?
**A.** > 100 µM (inactive)

**Q.** And the GI50 (HT-29)?
**A.** > 100 µM (inactive)

**Q.** Which results are given for `Cc1cc(OC(=O)c2c(C)cc(OC(=O)c3c(C)cc(O)cc3O)cc2O)cc(O)c1C(=O)O` [GYROPHORIC ACID]?
**A.** GI50 (RXF 393): > 100 µM (inactive); GI50 (SW-620): > 100 µM (inactive); GI50 (A498): > 100 µM (inactive); GI50 (SK-OV-3): > 100 µM (inactive); GI50 (HL-60): > 100 µM (inactive); GI50 (OVCAR-4): > 100 µM (inactive); GI50 (M14): > 100 µM (inactive); GI50 (XF498): > 100 µM (inactive); GI50 (OVCAR-5): > 100 µM (inactive); GI50 (SNB-19): > 100 µM (inactive); GI50 (Malme-3M): > 100 µM (inactive); GI50 (NCI-H23): > 100 µM (inactive); GI50 (NCI-H460): > 100 µM (inactive); GI50 (SF-295): > 100 µM (inactive); GI50 (DMS-114): > 100 µM (inactive); GI50 (SF-268): > 100 µM (inactive); GI50 (DLD-1): > 100 µM (inactive); GI50 (KM12): > 100 µM (inactive); GI50 (SN12C): > 100 µM (inactive); GI50 (SK-MEL-5): > 100 µM (inactive); GI50 (UACC-257): > 100 µM (inactive); GI50 (OVCAR-8): > 100 µM (inactive); GI50 (LOX IMVI): > 100 µM (inactive); GI50 (K562): > 100 µM (inactive); GI50 (EKVX): > 100 µM (inactive); GI50 (CCRF-CEM): > 100 µM (inactive); GI50 (COLO 205): > 100 µM (inactive); GI50 (M19-MEL): > 100 µM (inactive); GI50 (HCC 2998): > 100 µM (inactive); GI50 (SK-MEL-28): > 100 µM (inactive); GI50 (KM-20L2): > 100 µM (inactive); GI50 (TK-10): > 100 µM (inactive); GI50 (SNB-78): > 100 µM (inactive); GI50 (SK-MEL-2): > 100 µM (inactive); GI50 (NCI-H522): > 100 µM (inactive); GI50 (UO-31): 76.4 µM (inactive); GI50 (A549): > 100 µM (inactive); GI50 (786-0): > 100 µM (inactive); GI50 (LXFL 529): > 100 µM (inactive); GI50 (ACHN): > 100 µM (inactive); GI50 (HOP-62): > 100 µM (inactive); GI50 (RPMI-8226): > 100 µM (inactive); GI50 (MOLT-4): > 100 µM (inactive); GI50 (CAKI-1): > 100 µM (inactive); GI50 (UACC-62): > 100 µM (inactive); GI50 (OVCAR-3): > 100 µM (inactive); GI50 (HOP-92): 69.5 µM (inactive); GI50 (U-251): > 100 µM (inactive); GI50 (DMS-273): > 100 µM (inactive); GI50 (SF-539): > 100 µM (inactive); GI50 (SNB-75): 91.6 µM (inactive); GI50 (IGROV-1): > 100 µM (inactive); GI50 (RXF 631): > 100 µM (inactive); GI50 (HT-29): > 100 µM (inactive)
